Data published in patent US10494364B2, “Cathepsin K inhibitors and application thereof” (SUNSHINE LAKE PHARMA CO., LTD., priority 2015, dated 2019).

Columns and labels:
Assay type in all cases: biochemical
human cathepsin K = biological target: T1, human cathepsin K (Homo sapiens, UniProt P43235); assay: Assay of cathepsin K inhibitory activity in vitro; details: IC50 against human cathepsin K; substrate Z-Phe-Arg-AMC 10 μM; 25° C.; read-out: Cat-K
T1 sequence (P43235 115-329): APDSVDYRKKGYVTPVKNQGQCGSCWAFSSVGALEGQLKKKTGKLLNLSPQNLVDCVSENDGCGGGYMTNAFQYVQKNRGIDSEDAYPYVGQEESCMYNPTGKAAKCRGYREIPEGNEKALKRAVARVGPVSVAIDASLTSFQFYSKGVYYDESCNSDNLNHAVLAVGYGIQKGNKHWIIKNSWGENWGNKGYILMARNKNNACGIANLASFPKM
Description: Assay Method of Cathepsin K Inhibitory Activity In Vitro
Using 45000-fold diluted cathepsin K solution and 10 μM Z-Phe-Arg-AMC as substrate, the test compound and cathepsin K solution were incubated at 25° C. for 15 min in a 15 μL reaction system according to the optimized experimental condition.

human cathepsin L = human cathepsin L (Homo sapiens, UniProt P07711); assay: Assay of cathepsin L inhibitory activity in vitro; details: IC50 against human cathepsin L; substrate Z-Phe-Arg-AMC 10 μM; 25° C.; read-out: Cat-L
Description: Assay Method of Cathepsin L Inhibitory Activity In Vitro
0.01 ng/μL was the final concentration of Cathepsin L in the enzyme reaction, and Z-Phe-Arg-AMC with the final concentration of 10 μM was added into the reaction system as substrate, in the reaction system the test compound and enzyme had been incubated at 25° C. for 15 min.

human cathepsin B = human cathepsin B (Homo sapiens, UniProt P07858); assay: Assay of cathepsin B inhibitory activity in vitro; details: IC50 against human cathepsin B; substrate Z-Phe-Arg-AMC 10 μM; 25° C.; read-out: Cat-B
Description: Assay Method of Cathepsin B Inhibitory Activity In Vitro
0.01 ng/μL was the final concentration of Cathepsin B in the enzyme reaction, and Z-Phe-Arg-AMC with the final concentration of 10 μM was added into the reaction system as substrate, in the reaction system the test compound and enzyme had been incubated at 25° C. for 15 min.

human cathepsin S = human cathepsin S (Homo sapiens, UniProt P25774); assay: Assay of cathepsin S inhibitory activity in vitro; details: IC50 against human cathepsin S; substrate Z-VVR-AMC 20 μM; 25° C.; read-out: Cat-S
Description: Assay Method of Cathepsin S Inhibitory Activity In Vitro
0.25 ng/L was the final concentration of Cathepsin S in the enzyme reaction, and Z-VVR-AMC with the final concentration of 20 μM was added into the reaction system as substrate, in the reaction system the test compound and enzyme had been incubated at 25° C. for 15 min.

Chain of human cathepsin L (P07711 114-333): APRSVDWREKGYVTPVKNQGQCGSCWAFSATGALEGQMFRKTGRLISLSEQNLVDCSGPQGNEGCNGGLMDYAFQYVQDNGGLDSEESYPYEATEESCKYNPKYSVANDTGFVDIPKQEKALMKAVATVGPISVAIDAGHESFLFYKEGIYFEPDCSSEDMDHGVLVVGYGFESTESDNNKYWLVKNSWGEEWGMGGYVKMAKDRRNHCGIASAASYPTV
Chain of human cathepsin S (P25774 115-331): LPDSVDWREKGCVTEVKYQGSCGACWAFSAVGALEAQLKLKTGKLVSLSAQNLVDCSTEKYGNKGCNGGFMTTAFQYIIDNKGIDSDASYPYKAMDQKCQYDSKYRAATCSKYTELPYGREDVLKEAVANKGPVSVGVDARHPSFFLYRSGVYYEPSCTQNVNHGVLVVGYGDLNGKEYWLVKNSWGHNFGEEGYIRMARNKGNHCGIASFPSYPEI

## N#CC1(NC(=O)C2(NC(=O)c3cc4ccc(-c5ccc(C(O)C(F)F)cc5)cc4o3)CCCCC2)CC1 (centres unmarked) [Example 7, N-(1-((1-cyanocyclopropyl)carbamoyl)cyclohexyl)-6-(4-(2,2-difluoro-1-hydroxyethyl)phenyl)benzofuran-2-carboxamide]
Human cathepsin K
  IC50: 0.00062 µM
Human cathepsin L
  IC50: > 10 µM
Human cathepsin B
  IC50: 0.103 µM
Human cathepsin S
  IC50: 2.1 µM

## COc1cc(-c2ccc3cc(C(=O)NC4(C(=O)NC5(C#N)CC5)CCC(F)(F)CC4)oc3c2)ccc1C(=O)N1CCOCC1 [Example 40, N-(1-((1-cyanocyclopropyl)carbamoyl)-4,4-difluorocyclohexyl)-6-(3-methoxy-4-(morpholine-4-carbonyl)phenyl)benzofuran-2-carboxamide]
Human cathepsin K
  IC50: 0.00096 µM
Human cathepsin L
  IC50: > 10 µM
Human cathepsin B
  IC50: 2.22 µM
Human cathepsin S
  IC50: > 10 µM

## COc1cc(-c2ccc3cc(C(=O)NC4(C(=O)NC5(C#N)CC5)CCC(F)(F)CC4)oc3c2)ccc1S(C)(=O)=O [Example 97]
Human cathepsin K
  IC50: 0.00137 µM
Human cathepsin L
  IC50: > 10 µM
Human cathepsin B
  IC50: 0.355 µM
Human cathepsin S
  IC50: 2.29 µM

## COc1cc(-c2ccc3cc(C(=O)NC4(C(=O)NC5(C#N)CC5)CCC(F)(F)CC4)oc3c2)ccc1OCC(C)(C)O [Example 44, N-(1-((1-cyanocyclopropyl)carbamoyl)-4,4-difluorocyclohexyl)-6-(4-(2-hydroxy-2-methylpropoxy)-3-methoxyphenyl)benzofuran-2-carboxamide]
Human cathepsin K
  IC50: 0.00235 µM
Human cathepsin L
  IC50: > 10 µM
Human cathepsin B
  IC50: 7.97 µM
Human cathepsin S
  IC50: > 10 µM

## N#CC1(NC(=O)C2(NC(=O)c3cc4ccc(-c5ccc(C(O)C(N)=O)cc5)cc4o3)CCC(F)(F)CC2)CC1 (centres unmarked) [Example 90]
Human cathepsin K
  IC50: 0.0015 µM
Human cathepsin L
  IC50: > 10 µM
Human cathepsin B
  IC50: 1.2 µM
Human cathepsin S
  IC50: 0.17 µM

## N#CC1(NC(=O)C2(NC(=O)c3cc4ccc(-c5ccc(C(=O)N6CCOCC6)cc5)cc4o3)CCC(F)(F)CC2)CC1 [Example 92]
Human cathepsin K
  IC50: 0.0014 µM
Human cathepsin L
  IC50: > 10 µM
Human cathepsin B
  IC50: 6.4 µM
Human cathepsin S
  IC50: 2.3 µM

## N#CC1(NC(=O)C2(NC(=O)c3cc4ccc(-c5ccc(C6(O)COC6)cc5)cc4o3)CCCCC2)CC1 [Example 72]
Human cathepsin K
  IC50: 0.0005 µM
Human cathepsin L
  IC50: > 10 µM
Human cathepsin B
  IC50: 0.727 µM
Human cathepsin S
  IC50: > 10 µM

## N#CC1(NC(=O)C2(NC(=O)c3cc4ccc(-c5ccc(C6(O)CCOCC6)cc5)cc4o3)CCCCC2)CC1 [Example 75]
Human cathepsin K
  IC50: 0.00183 µM
Human cathepsin L
  IC50: > 10 µM
Human cathepsin B
  IC50: 0.49 µM
Human cathepsin S
  IC50: 4.1 µM

## CS(=O)(=O)c1cccc(-c2ccc3cc(C(=O)NC4(C(=O)NC5(C#N)CC5)CCCCC4)oc3c2)c1 [Example 64]
Human cathepsin K
  IC50: 0.00088 µM
Human cathepsin L
  IC50: > 10 µM
Human cathepsin B
  IC50: 0.373 µM
Human cathepsin S
  IC50: 0.637 µM

## N#CC1(NC(=O)C2(NC(=O)c3cc4ccc(-c5ccc(-n6cncn6)cc5)cc4o3)CCCCC2)CC1 [Example 84]
Human cathepsin K
  IC50: 0.0013 µM
Human cathepsin L
  IC50: > 10 µM
Human cathepsin B
  IC50: 0.86 µM
Human cathepsin S
  IC50: 9.7 µM

## N#CC1(NC(=O)C2(NC(=O)c3cc4ccc(-c5ccc(C(O)C6(O)CC6)cc5)cc4o3)CCC(F)(F)CC2)CC1 (centres unmarked) [Example 15, N-(1-((1-cyanocyclopropyl)carbamoyl)-4,4-difluorocyclohexyl)-6-(4-(hydroxy(1-hydroxycyclopropyl)methyl)phenyl)benzofuran-2-carboxamide]
Human cathepsin K
  IC50: 0.0031 µM
Human cathepsin L
  IC50: > 10 µM
Human cathepsin B
  IC50: 0.75 µM
Human cathepsin S
  IC50: 0.62 µM

## N#CC1(NC(=O)C2(NC(=O)c3cc4ccc(-c5ccc(C6(O)CCS(=O)(=O)CC6)cc5)cc4o3)CCC(F)(F)CC2)CC1 [Example 27, N-(1-((1-cyanocyclopropyl)carbamoyl)-4,4-difluorocyclohexyl)-6-(4-(4-hydroxy-1,1-dioxidotetrahydro-2H-thiopyran-4-yl)phenyl)benzofuran-2-carboxamide]
Human cathepsin K
  IC50: 0.00083 µM
Human cathepsin L
  IC50: > 10 µM
Human cathepsin B
  IC50: 2.1 µM
Human cathepsin S
  IC50: 0.4 µM

## N#CC1(NC(=O)C2(NC(=O)c3cc4ccc(-c5ccc(C6(O)CCOCC6)cc5)cc4o3)CCC(F)(F)CC2)CC1 [Example 22, N-(1-((1-cyanocyclopropyl)carbamoyl)-4,4-difluorocyclohexyl)-6-(4-(4-hydroxytetrahydro-2H-pyran-4-yl)phenyl)benzofuran-2-carboxamide]
Human cathepsin K
  IC50: 0.0018 µM
Human cathepsin L
  IC50: > 10 µM
Human cathepsin B
  IC50: 3.1 µM
Human cathepsin S
  IC50: 1.8 µM

## N#CC1(NC(=O)C2(NC(=O)c3cc4ccc(-c5ccc(-n6cncn6)cc5)cc4o3)CCCCCC2)CC1 [Example 61]
Human cathepsin K
  IC50: 0.00126 µM
Human cathepsin L
  IC50: > 10 µM
Human cathepsin B
  IC50: 0.423 µM
Human cathepsin S
  IC50: > 10 µM

## N#CC1(NC(=O)C2(NC(=O)c3cc4ccc(-c5ccc(C(O)CO)cc5)cc4o3)CCC(F)(F)CC2)CC1 (centres unmarked) [Example 6, N-(1-((1-cyanocyclopropyl)carbamoyl)-4,4-difluorocyclohexyl)-6-(4-(1,2-dihydroxyethyl)phenyl)benzofuran-2-carboxamide]
Human cathepsin K
  IC50: 0.0031 µM
Human cathepsin L
  IC50: > 10 µM
Human cathepsin B
  IC50: 0.75 µM
Human cathepsin S
  IC50: 0.62 µM

## N#CC1(NC(=O)C2(NC(=O)c3cc4ccc(-c5csc(N6CCOC6=O)n5)cc4o3)CCCCC2)CC1 [Example 68]
Human cathepsin K
  IC50: 0.00079 µM
Human cathepsin L
  IC50: > 10 µM
Human cathepsin B
  IC50: 0.36 µM
Human cathepsin S
  IC50: 4.08 µM

## N#CC1(NC(=O)C2(NC(=O)c3cc4ccc(-c5ccc(C6(N)COC6)cc5)cc4o3)CCCCC2)CC1 [Example 1, 6-(4-(3-aminooxetan-3-yl)phenyl)-N-(1-((1-cyanocyclopropyl)carbamoyl)cyclohexyl)benzofuran-2-carboxamide]
Human cathepsin K
  IC50: 0.00019 µM
Human cathepsin L
  IC50: 1.5 µM
Human cathepsin B
  IC50: 0.022 µM
Human cathepsin S
  IC50: 1.8 µM

## N#CC1(NC(=O)C2(NC(=O)c3cc4ccc(-c5ccc(OC6COC6)cc5)cc4o3)CCC(F)(F)CC2)CC1 [Example 19, N-(1-((1-cyanocyclopropyl)carbamoyl)-4,4-difluorocyclohexyl)-6-(4-(oxetan-3-yloxy)phenyl)benzofuran-2-carboxamide]
Human cathepsin K
  IC50: 0.002 µM
Human cathepsin L
  IC50: > 10 µM
Human cathepsin B
  IC50: > 10 µM
Human cathepsin S
  IC50: 2.3 µM

## N#CC1(NC(=O)C2(NC(=O)c3cc4ccc(-c5csc(-n6cncn6)n5)cc4o3)CCC(F)(F)CC2)CC1 [Example 57, 6-(2-(1H-1,2,4-triazol-1-yl)thiazol-4-yl)-N-(1-((1-cyanocyclopropyl)carbamoyl)-4,4-difluorocyclohexyl)benzofuran-2-carboxamide]
Human cathepsin K
  IC50: 0.0013 µM
Human cathepsin L
  IC50: > 10 µM
Human cathepsin B
  IC50: > 10 µM
Human cathepsin S
  IC50: 0.416 µM

## CS(=O)(=O)c1ccc(-c2ccc3cc(C(=O)NC4(C(=O)NC5(C#N)CC5)CCCCC4)oc3c2)cc1 [Example 62]
Human cathepsin K
  IC50: 0.00137 µM
Human cathepsin L
  IC50: > 10 µM
Human cathepsin B
  IC50: 0.88 µM
Human cathepsin S
  IC50: 4 µM

## CS(=O)(=O)c1ccc(-c2ccc3cc(C(=O)NC4(C(=O)NC5(C#N)CC5)CCCCCC4)oc3c2)cc1 [Example 81]
Human cathepsin K
  IC50: 0.00134 µM
Human cathepsin L
  IC50: > 10 µM
Human cathepsin B
  IC50: 2.4 µM
Human cathepsin S
  IC50: 1.6 µM

## N#CC1(NC(=O)C2(NC(=O)c3cc4ccc(-c5ccc(C6(F)COC6)cc5)cc4o3)CCCCC2)CC1 [Example 73]
Human cathepsin K
  IC50: 0.00304 µM
Human cathepsin L
  IC50: > 10 µM
Human cathepsin B
  IC50: 1.12 µM
Human cathepsin S
  IC50: > 10 µM

## COC1(c2ccc(-c3ccc4cc(C(=O)NC5(C(=O)NC6(C#N)CC6)CCCCC5)oc4c3)cc2)COC1 [Example 71]
Human cathepsin K
  IC50: 0.0021 µM
Human cathepsin L
  IC50: > 10 µM
Human cathepsin B
  IC50: 0.29 µM
Human cathepsin S
  IC50: > 10 µM
